From ChEMBL document CHEMBL1140022, “Adenosine phosphonate inhibitors of lipid II: alanyl tRNA ligase MurM from Streptococcus pneumoniae” (Bioorg Med Chem Lett, 2007)
The source made the active and inactive calls. The rule behind the calls is not given here.

Legend:
[1] = Inhibition of Streptococcus pneumoniae 159 MurM
Streptococcus pneumoniae [2] = assay: Inhibition of Streptococcus pneumoniae 159 MurM at 1 mM
Streptococcus pneumoniae [3] = assay: Antibacterial activity against penicillin-resistant Streptococcus pneumoniae 159 at 1 mM; type: functional, organism-based

| Activity (Streptococcus pneumoniae [2]) | SMILES | IC50 [1] [µM] | Activity (Streptococcus pneumoniae [3]) |
| --- | --- | --- | --- |
|  | CC(N)P(=O)(O)O[C@@H]1[C@H](O)[C@@H](CO)O[C@H]1n1cnc2c(N)ncnc21 (some centres undefined) | 780 |  |
| inactive | COc1ccc(CC(N)C(=O)N[C@H]2[C@@H](O)[C@H](n3cnc4c(N(C)C)ncnc43)O[C@@H]2CO)cc1 (single isomer, unassigned) |  |  |
|  | CC(N)P(=O)(O)O[C@H]1C[C@H](n2cnc3c(N)ncnc32)O[C@@H]1CO (some centres undefined) | 100 | inactive |
